Measured values: US8999320B2, “Nanoscale bound bilayers, methods of use and production” (The Rockefeller University, priority 2008, dated 2015)

Experiments:
2D7 capture antibody = assay: Sandwich ELISA with conformation sensitive 2D7 capture and 1D4 detection antibodies; assay type: binding; details: CCR5 from HEK-293 cells; 30 minutes at room temperature; sample 1 = DDM, CHAPS, DOPC/POPC
Protocol: The primary (capture) antibody was diluted to 1 μg/mL in 1×PBS pH 7.2 and 100 μL was added to each well of the microplate (Costar clear-bottom, black 96-well). The plate was stored overnight at 4° C. The plate wells were washed twice with PBS containing 0.05% Tween-20 and once with PBS and 200 μL of 10 mg/mL (1%) fatty-acid free BSA in PBS. The plate was either incubated at room temperature for 2 hours or overnight at 4° C. G-protein coupled receptor (GPCR)—NABBs were added to the respective wells in a final volume of 100 μL. GPCR-NABB was diluted in PBS containing 1 mg/mL (0.1%) BSA. The microplate was incubated at 4° C. overnight to ensure complete binding of epitope on the GPCR-NABB to the capture antibody. The analyte was then washed 3 times with 0.1% BSA-PBS using 200 μL per wash. […] The fluorescence in the wells was measured using a Cytofluor-II spectrofluorimeter with excitation at 530 nm and emission at 590 nm.
Conformational stability of the extracellular side of CCR5 after exposure to different detergents was determined by a sandwich ELISA using 2D7 and 1D4 antibodies. […] The amount of CCR5 bound to the 2D7 capture antibody was measured by detecting the binding of the second antibody-HRP-linked 1D4, and adding a fluorogenic HRP substrate in the microplate wells. […]

CCR5 = target: T1, CCR5 (Homo sapiens, UniProt P51681); assay: High-throughput G-protein activation assay (BODIPY-FL-GTPγS binding) with CCR5-NABBs; assay type: biochemical; details: 50 nM RANTES, CCR5 in NABBs
T1 construct: made in house; host or cells: HEK-293 cells stably expressing CCR5, immunopurified on 1D4-sepharose
T1 sequence (P51681 whole entry): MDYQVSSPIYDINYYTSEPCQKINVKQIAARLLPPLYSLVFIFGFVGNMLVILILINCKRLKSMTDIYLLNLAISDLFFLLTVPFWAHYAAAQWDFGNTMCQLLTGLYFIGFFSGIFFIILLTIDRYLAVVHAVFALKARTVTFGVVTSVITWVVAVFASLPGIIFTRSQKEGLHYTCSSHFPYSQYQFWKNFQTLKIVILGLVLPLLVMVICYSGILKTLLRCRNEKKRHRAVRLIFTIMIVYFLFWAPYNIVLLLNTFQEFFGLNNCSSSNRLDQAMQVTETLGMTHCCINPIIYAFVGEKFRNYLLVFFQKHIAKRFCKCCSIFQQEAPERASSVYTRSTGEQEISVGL
Protocol: A black, C-bottom 96-well plate was used for the high-throughput G-protein activation assay. 25 μL of purified G protein or its subunits were added to the microplate wells from a […] protein stock. The added proteins were either Gi1α subunit, Gi1α with transducin βγ subunits, or holotransducin (Gt), with 25 μl of buffer G1 without GDP. […] 100 μL of CCR5-NABB solution with and without RANTES were added to the respective wells and the microplate incubated at room temperature for 15 minutes. 60 μL of BODIPY-FL-GTPγS was added from a 1 μM stock to all wells using a multi-channel pipettor. The plate was shaken for 30 seconds, covered and incubated at room temperature for 5 minutes. The fluorescence in the wells was recorded using a Cytofluor II microplate reader with excitation wavelength at 485 nm and 20 nm bandpass, emission wavelength at 530 nm and 25 nm bandpass. The gain was set to 95 and 15 reads were integrated for each well. The fluorescence values from the wells containing BODIPY-FL-GTPγS and no G protein was subtracted from the rest of the data as background. The fluorescence values from wells containing the CCR5-NABBs with no RANTES was subtracted from RANTES-containing wells to determine the RANTES-specific response.
CCR5 activation of G protein was measured by binding of a fluorescently labeled nucleotide analog BODIPY-FL-GTPγS. […]

| enhancement of B-GTPγS binding to the G protein, compared with unstimulated CCR5-NABBs (CCR5) | Compound | 2D7/1D4 sandwich ELISA signal relative to sample 1 (2D7 capture antibody) |
| --- | --- | --- |
|  | CCCCCCCCCCCCO[C@@H]1O[C@H](CO)[C@@H](O[C@H]2O[C@H](CO)[C@@H](O)[C@H](O)[C@H]2O)[C@H](O)[C@H]1O [DDM, n-dodecyl-beta-D-maltopyranoside] | 65% |
| up to 30% | RANTES: ligand used to stimulate CCR5 in NABBs |  |
